Assay results reported in US7416885B2, “Proliferated cell lines and uses thereof” (University of South Florida, priority 2002, dated 2008).
pIC50, pKd: −log10 of the molar value.

Key:
[1] = molecular target: single class of receptors for [3H]en-TTX; assay type: binding, rat
[2] = tested on: MAO B activity in RCSN-3 cell lysates; test: MPP+ production by RCSN-3 cell lysates incubated with MPTP (HPLC); assay type: biochemical, rat
Description: To verify if RCSN-3 cells can produce MPP^+ from MPTP, lisates of RCSN-3 cells (differentiated and non-differentiated) were incubated with MPTP. Differentiation was induced by culturing in F10 media+2% adult bovine serum for one week. Non-differentiated conditions were attained with F10 media+10% adult bovine serum and 2.5% fetal bovine serum. Lisate buffer was PBS with 50 μM PMSF and a protease inhibiting cocktail (leupeptin, pepstatine, chemostatin). Samples were incubated with MPTP and MPP^+ for 15 min. at 37° C. HPLC studies were carried out in a SHIMADZU HPLC with […], reading at 245 nm. Results are shown in FIGS. 16A–C, FIGS. 17A–D, and FIGS. 18A–C.

[3] = molecular target: receptors for α-bungarotoxin (Homo sapiens, UniProt P02708+P07510+Q07001); assay type: binding
Sequence of receptors for α-bungarotoxin (P02708 21-457 limits assumed): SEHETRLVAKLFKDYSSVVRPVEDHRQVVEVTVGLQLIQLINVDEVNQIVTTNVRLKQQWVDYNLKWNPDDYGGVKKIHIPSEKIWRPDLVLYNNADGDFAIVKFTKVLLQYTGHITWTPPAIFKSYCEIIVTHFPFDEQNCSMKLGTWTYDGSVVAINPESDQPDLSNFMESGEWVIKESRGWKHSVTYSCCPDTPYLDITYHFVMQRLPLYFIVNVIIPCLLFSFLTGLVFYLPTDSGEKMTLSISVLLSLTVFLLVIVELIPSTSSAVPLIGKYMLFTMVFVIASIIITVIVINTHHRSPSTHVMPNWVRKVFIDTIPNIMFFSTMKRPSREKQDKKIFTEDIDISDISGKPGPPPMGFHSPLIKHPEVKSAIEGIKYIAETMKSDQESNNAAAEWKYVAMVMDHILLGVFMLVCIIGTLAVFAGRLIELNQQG
Sequence of receptors for α-bungarotoxin (P07510 23-517 limits assumed): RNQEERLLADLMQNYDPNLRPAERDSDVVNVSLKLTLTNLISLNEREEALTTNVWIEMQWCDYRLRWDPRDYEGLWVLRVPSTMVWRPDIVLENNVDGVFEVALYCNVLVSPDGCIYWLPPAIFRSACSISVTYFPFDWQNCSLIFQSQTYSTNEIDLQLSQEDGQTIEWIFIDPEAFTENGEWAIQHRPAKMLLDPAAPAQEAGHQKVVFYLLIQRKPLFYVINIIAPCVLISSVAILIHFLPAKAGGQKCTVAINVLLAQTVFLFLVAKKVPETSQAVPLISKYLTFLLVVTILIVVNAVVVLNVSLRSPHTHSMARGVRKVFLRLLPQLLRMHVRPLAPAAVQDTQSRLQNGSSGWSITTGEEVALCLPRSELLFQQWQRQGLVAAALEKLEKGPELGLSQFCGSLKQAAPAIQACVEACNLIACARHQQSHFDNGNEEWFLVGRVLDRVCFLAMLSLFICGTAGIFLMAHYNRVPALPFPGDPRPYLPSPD
Sequence of receptors for α-bungarotoxin (Q07001 22-517 limits assumed): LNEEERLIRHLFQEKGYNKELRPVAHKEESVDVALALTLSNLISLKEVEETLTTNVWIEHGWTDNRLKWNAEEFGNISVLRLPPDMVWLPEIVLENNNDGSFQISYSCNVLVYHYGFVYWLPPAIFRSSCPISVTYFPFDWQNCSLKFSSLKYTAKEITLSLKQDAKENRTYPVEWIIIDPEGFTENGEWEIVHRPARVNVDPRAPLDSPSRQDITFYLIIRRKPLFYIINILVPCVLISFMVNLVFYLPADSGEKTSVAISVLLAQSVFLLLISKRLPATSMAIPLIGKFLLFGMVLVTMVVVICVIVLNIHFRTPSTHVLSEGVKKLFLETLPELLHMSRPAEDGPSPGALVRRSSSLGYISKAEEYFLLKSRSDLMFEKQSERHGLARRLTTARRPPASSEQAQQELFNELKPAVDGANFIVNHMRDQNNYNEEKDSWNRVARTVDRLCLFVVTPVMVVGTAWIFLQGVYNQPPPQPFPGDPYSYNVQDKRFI

RCSN cells = test: intracellular Ca2+ imaging in Fluo-3 loaded RCSN cells; assay type: cell-based, rat; details: differentiated cells, 200 μM glutamate applied externally
RCSN-3 cells [4] = test: melanin fluorescence in RCSN-3 cells preincubated with L-Dopa; assay type: cell-based, rat; details: for melanin, mean: L-DOPA, n 3 (ANOVA summary); for melanin, Average: L-DOPA (+), 100 microM, 24 hrs
Description: RCSN-3 cells were preincubated for 24 hrs in the presence of 100 microM L-Dopa. Cells were lysed with a hypotonic buffer. […] Oxidation of melanin in vitro degraded the melanin polymer, resulting in a fluorescent solution. Fluorescence spectroscopy gave an excitation maximum at approximately 470 nm and an emission maximum at approximately 540 nm for both natural and synthetic melanin. Increasing the time of exposure to light or hydrogen peroxide increased melanin fluorescence (Kayatz, P et al., Invest Ophthalmol Vis Sci, January 2001,42(1):241–6).

[5] = molecular target: microsomal fraction from RCVC cells (Rattus norvegicus, UniProt P22002); test: 3H-nitrendipine binding to microsomal fraction of RCVC cells; details: read-out: equilibrium dissociation constant
[6] = molecular target: T1, receptors for dihydropyridines (Homo sapiens, UniProt Q13698); test: dihydropyridine ([3H]PN200-110) binding to RCMH cells
T1 construct: endogenous in cells; host or cells: RCMH (immortalized human skeletal muscle cell line)
T1 sequence (Q13698 whole entry): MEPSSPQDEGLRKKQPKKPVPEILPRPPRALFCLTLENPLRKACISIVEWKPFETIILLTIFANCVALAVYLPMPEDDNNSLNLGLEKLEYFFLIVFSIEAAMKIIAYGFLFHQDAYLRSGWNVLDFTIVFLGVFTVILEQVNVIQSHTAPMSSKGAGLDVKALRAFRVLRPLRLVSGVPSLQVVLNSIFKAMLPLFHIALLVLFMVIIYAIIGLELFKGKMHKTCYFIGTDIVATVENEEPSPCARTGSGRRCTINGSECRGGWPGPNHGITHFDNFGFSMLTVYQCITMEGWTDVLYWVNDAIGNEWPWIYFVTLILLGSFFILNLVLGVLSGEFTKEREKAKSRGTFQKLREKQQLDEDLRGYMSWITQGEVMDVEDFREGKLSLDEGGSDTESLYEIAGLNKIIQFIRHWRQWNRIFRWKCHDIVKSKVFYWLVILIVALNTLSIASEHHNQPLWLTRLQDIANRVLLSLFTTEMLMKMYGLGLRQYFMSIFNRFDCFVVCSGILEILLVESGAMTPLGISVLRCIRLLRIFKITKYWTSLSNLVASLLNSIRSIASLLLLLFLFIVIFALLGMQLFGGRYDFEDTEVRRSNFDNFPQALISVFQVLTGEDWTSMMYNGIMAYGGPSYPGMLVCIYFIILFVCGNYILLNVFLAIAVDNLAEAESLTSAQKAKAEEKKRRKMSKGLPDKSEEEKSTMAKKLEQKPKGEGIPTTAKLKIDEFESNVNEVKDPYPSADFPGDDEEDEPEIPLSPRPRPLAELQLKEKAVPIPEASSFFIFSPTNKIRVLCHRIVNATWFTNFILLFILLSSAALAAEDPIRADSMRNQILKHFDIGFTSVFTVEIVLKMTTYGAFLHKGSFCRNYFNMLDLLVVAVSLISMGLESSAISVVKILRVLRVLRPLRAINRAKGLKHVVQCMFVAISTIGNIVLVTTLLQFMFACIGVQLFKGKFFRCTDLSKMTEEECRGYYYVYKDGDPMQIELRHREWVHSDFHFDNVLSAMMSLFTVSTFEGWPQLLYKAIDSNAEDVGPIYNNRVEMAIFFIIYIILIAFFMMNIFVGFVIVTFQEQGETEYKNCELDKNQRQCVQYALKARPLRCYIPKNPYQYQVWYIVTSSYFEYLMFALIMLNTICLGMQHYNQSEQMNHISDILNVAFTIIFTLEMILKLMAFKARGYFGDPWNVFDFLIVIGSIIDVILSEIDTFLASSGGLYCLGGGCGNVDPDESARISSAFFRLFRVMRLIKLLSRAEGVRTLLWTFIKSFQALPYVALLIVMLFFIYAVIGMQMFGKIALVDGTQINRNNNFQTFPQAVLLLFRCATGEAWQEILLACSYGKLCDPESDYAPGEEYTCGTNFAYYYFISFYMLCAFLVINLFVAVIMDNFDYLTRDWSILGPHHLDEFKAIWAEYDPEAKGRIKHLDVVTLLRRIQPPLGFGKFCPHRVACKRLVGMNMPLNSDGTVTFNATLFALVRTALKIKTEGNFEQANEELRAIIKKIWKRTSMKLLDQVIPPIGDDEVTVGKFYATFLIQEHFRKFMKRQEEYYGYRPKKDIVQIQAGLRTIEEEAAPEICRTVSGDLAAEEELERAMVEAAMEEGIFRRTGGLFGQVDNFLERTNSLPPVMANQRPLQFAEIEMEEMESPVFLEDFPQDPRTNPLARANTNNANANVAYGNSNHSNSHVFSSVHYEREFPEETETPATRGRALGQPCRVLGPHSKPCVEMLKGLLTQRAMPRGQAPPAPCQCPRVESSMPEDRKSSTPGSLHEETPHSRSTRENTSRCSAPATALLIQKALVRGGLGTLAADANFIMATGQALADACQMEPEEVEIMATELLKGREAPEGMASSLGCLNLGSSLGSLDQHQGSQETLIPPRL

RCVC cells = test: 45Ca2+ influx in RCVC cells; assay type: cell-based, rat; details: normally polarized cells
RCSN-3 cells [7] = tested on: RCSN-3 cells
UCHCC1 cells = assay type: cell-based, rat; details: read-out: half-maximal inhibitory concentration
RCSN-3 cells [8] = tested on: RCSN-3 cells; remark: listed apart in the source

Molecule: [^3H]ethylenediamine-tetrodotoxin [[^3H]en-TTX]
- pKd [1]: 8.96
- maximal binding (Bmax) [1]: 173 fmol/mg protein

Molecule: CN1CC=C(c2ccccc2)CC1 [MPTP, 1-methyl-4-phenyl-1,2,3,6-tetrahydropyridine]
- production of MPP+ from MPTP [2]: no production of MPP^+

Molecule: α-bungarotoxin
- Bmax [3]: 0.7 pmol/mg protein
- pKd [3]: 8.82

Molecule: N[C@@H](CCC(=O)O)C(=O)O [glutamate]
- cells responding with increases in Ca2+ (RCSN cells): up to 40%

Molecule: N[C@@H](Cc1ccc(O)c(O)c1)C(=O)O [L-DOPA, levodopa]
- melanin, mean (RCSN-3 cells [4]; Glass): 0.03305
- melanin, mean (RCSN-3 cells [4]; Plastic): 0.04045
- melanin, Average (RCSN-3 cells [4]; glass dishes): 0.033
- melanin, Average (RCSN-3 cells [4]; plastic dishes): 0.040

Molecule: CCOC(=O)C1=C(C)NC(C)=C(C(=O)OC)C1c1cccc([N+](=O)[O-])c1 (centres unmarked) [^3H-nitrendipine, nitrendipine]
- pKd [5]: 9.15

Molecule: COC(=O)C1=C(C)NC(C)=C(C(=O)OC(C)C)C1c1cccc2nonc12 (centres unmarked) [[^3H]PN200-110]
- Bmax [6]: 0.3 pmol/mg protein
- pKd [6]: 9.30

Molecule: CCOC(=O)C1=C(C)NC2=C(C(=O)OC2)C1c1ccccc1OC(F)F (centres unmarked) [CGP-28392]
- 45Ca2+ influx induced by calcium channel agonist (RCVC cells): equivalent influx

Molecule: COC(=O)C1=C(C)NC(C)=C([N+](=O)[O-])C1c1ccccc1C(F)(F)F (centres unmarked) [BAYK-8644]
- 45Ca2+ influx induced by calcium channel agonist (RCVC cells): equivalent influx

Molecule: NCCc1ccc(O)c(O)c1 [dopamine]
- mitochondrial membrane potential (JC-1 fluorescence) (RCSN-3 cells [7]): decrease in membrane potential
- ratio of emission between JC-1 and J monomer, normalized to basal fluorescence (RCSN-3 cells [7]): significant differences from controls

Molecule: [Mn+2] [manganese]
- mitochondrial membrane potential (JC-1 fluorescence) (RCSN-3 cells [7]): decrease in membrane potential
- ratio of emission between JC-1 and J monomer, normalized to basal fluorescence (RCSN-3 cells [7]): significant differences from controls

Molecule: NC1=N[C@H](O)[C@H]2[C@H]3O[C@]4(O)O[C@@H]([C@@H](O)[C@@]2(N1)[C@@H]4O)[C@]3(O)CO [tetrodotoxin]
- pIC50 (UCHCC1 cells): 9.05

Molecule: C[n+]1ccc(-c2ccccc2)cc1 [MPP+, 1-methyl-4-phenylpyridinium]
- DNA fragmentation (TUNEL) (RCSN-3 cells [8]): fragmentation of DNA
- mitochondrial membrane potential (JC-1 fluorescence) (RCSN-3 cells [7]): affects mitochondrial function
- ratio of emission between JC-1 and J monomer, normalized to basal fluorescence (RCSN-3 cells [7]): significant differences from controls
